Assay results: patent publication US6407103B2, “Indeno [1,2-c] pyrazol-4-ones and their uses” (Bristol-Myers Squibb Pharma Company, priority 1998, dated 2002)
Counter-ions that a name gives are not always drawn.

In order of rising melting point:
1. CN(C)c1ccc(CC(=O)N2CCC(c3[nH]nc4c3C(=O)c3c(NC(=O)NN5CCOCC5)cccc3-4)CC2)cc1 (as salt: TFA) [Example CCXCV, 3-(1-(4-(dimethylamino)benzylcarbonyl)piperidin-4-yl)-5-(morpholinocarbamoylamino)indeno[1,2-c]pyrazol-4-one]  107 °C
2. CN(C)C1CCCC(C(=O)N2CCC(c3[nH]nc4c3C(=O)c3c(NC(=O)NN5CCOCC5)cccc3-4)CC2)C1 (stereo not shown) (as salt: TFA) [Example CCXCI, 3-(1-(3-(dimethylamino)cyclohexylcarbonyl)piperidin-4-yl)-5-(morpholinocarbamoylamino)indeno[1,2-c]pyrazol-4-one]  153 °C
3. CN1CCCC(C(=O)N2CCC(c3[nH]nc4c3C(=O)c3c(NC(=O)NN5CCOCC5)cccc3-4)CC2)C1 (stereo not shown) (as salt: TFA) [Example CCLXXXVIII, 3-(1-(1-methylpiperidin-3-ylcarbonyl)piperidin-4-yl)-5-(morpholinocarbamoylamino)indeno[1,2-c]pyrazol-4-one]  158 °C
4. O=C(Nc1cccc2c1C(=O)c1c-2n[nH]c1C1CCN(C(=O)C2CCCNC2)CC1)NN1CCOCC1 (stereo not shown) (as salt: TFA) [Example CCLXXXVII, 3-(1-(piperidin-3-ylcarbonyl)piperidin-4-yl)-5-(morpholinocarbamoylamino)indeno[1,2-c]pyrazol-4-one]  169 °C
5. Nc1ccc(CC(=O)N2CCC(c3[nH]nc4c3C(=O)c3c(NC(=O)NN5CCOCC5)cccc3-4)CC2)cc1 (as salt: TFA) [Example CCXCIV, 3-(1-(4-aminobenzylcarbonyl)piperidin-4-yl)-5-(morpholinocarbamoylamino)indeno[1,2-c]pyrazol-4-one]  177 °C
6. CO[C@H]1CC[C@@H](C(=O)N2CCC(c3[nH]nc4c3C(=O)c3c(NC(=O)NN5CCOCC5)cccc3-4)CC2)CC1 (as salt: TFA) [Example CCXCIII, 3-(1-(cis-4-methoxycyclohexylcarbonyl)piperidin-4-yl)-5-(morpholinocarbamoylamino)indeno[1,2-c]pyrazol-4-one]  178 °C
7. CN(C)c1ccc(C(=O)N2CCC(c3[nH]nc4c3C(=O)c3c(NC(=O)NN5CCOCC5)cccc3-4)CC2)cc1 (as salt: TFA) [Example CCXCVIII, 3-(1-(4-(dimethylamino)phenylcarbonyl)piperidin-4-yl)-5-(morpholinocarbamoylamino)indeno[1,2-c]pyrazol-4-one]  189 °C
8. CN1CCN(c2ccc(-c3[nH]nc4c3C(=O)c3c(NC(=O)NN(C)C)cccc3-4)cc2)CC1 (as salt: TFA) [Example CCXXII, 3-(4-(4-methylpiperazino)phenyl)-5-((N,N-dimethylamino)carbamoylamino)indeno[1,2-c]pyrazol-4-one]  192 °C
9. Nc1ccc(C(=O)N2CCC(c3[nH]nc4c3C(=O)c3c(NC(=O)NN5CCOCC5)cccc3-4)CC2)cc1 (as salt: TFA) [Example CCXCVII, 3-(1-(4-aminophenylcarbonyl)piperidin-4-yl)-5-(morpholinocarbamoylamino)indeno[1,2-c]pyrazol-4-one]  198 °C
10. NC1CCCC(C(=O)N2CCC(c3[nH]nc4c3C(=O)c3c(NC(=O)NN5CCOCC5)cccc3-4)CC2)C1 (stereo not shown) (as salt: TFA) [Example CCXC, 3-(1-(3-aminocyclohexylcarbonyl)piperidin-4-yl)-5-(morpholinocarbamoylamino)indeno[1,2-c]pyrazol-4-one]  201 °C
11. CC(C)(C)OC(=O)NC1CCC(C(=O)N2CCC(c3[nH]nc4c3C(=O)c3c(NC(=O)NN5CCOCC5)cccc3-4)CC2)CC1 (stereo not shown) (as salt: TFA) [Example CCLXXXV, 3-(1-(4-(t-butoxycarbonylamino)cyclohexylcarbonyl)piperidin-4-yl)-5-(morpholinocarbamoylamino)indeno[1,2-c]pyrazol-4-one]  210 °C
12. COC(C)(C)[C@@H]1CCCN1NC(=O)Nc1cccc2c1C(=O)c1c-2n[nH]c1-c1ccc(N2CCNCC2)cc1 (as salt: TFA) [Example CCXXXII, 3-(4-piperazinophenyl)-5-((2(S)-(1-methoxy-1-methylethyl)pyrrolidino)carbamoylamino)indeno[1,2-c]pyrazol-4-one]  218 °C
13. COC(C)(C)[C@H]1CCCN1NC(=O)Nc1cccc2c1C(=O)c1c-2n[nH]c1-c1ccc(N2CCNCC2)cc1 (as salt: TFA) [Example CCXXXI, 3-(4-piperazinophenyl)-5-((2(R)-(1-methoxy-1-methylethyl)pyrrolidino)carbamoylamino)indeno[1,2-c]pyrazol-4-one]  221 °C
14. CN(C)NC(=O)Nc1cccc2c1C(=O)c1c-2n[nH]c1-c1ccc(N2CCNCC2)cc1 (as salt: TFA) [Example CCXXI, 3-(4-piperazinophenyl)-5-((N,N-dimethylamino)carbamoylamino)indeno[1,2-c]pyrazol-4-one]  238 °C
15. NCC1CCN(CC(=O)Nc2cccc3c2C(=O)c2c-3n[nH]c2-c2ccc(N3CCNCC3)cc2)CC1 (as salt: TFA) [Example CCXVII, 3-(4-piperazinophenyl)-5-(4-(aminomethyl)piperidinoacetamido)indeno[1,2-c]pyrazol-4-one]  239 °C
16. CN(C)CC(=O)Nc1cccc2c1C(=O)c1c-2n[nH]c1-c1ccc(N2CCNCC2)cc1 (as salt: TFA) [Example CCXIV, 3-(4-piperazinophenyl)-5-((N,N-dimethylamino)acetamido)indeno[1,2-c]pyrazol-4-one]  243 °C
17. CCN1CCN(c2ccc(-c3[nH]nc4c3C(=O)c3c(NC(=O)NN5CCOCC5)cccc3-4)cc2)CC1 (as salt: TFA) [Example CCXIX, 3-(4-(4-ethylpiperazino)phenyl)-5-(morpholinocarbamoylamino)indeno[1,2-c]pyrazol-4-one]  245 °C
18. CN1CCN(c2ccc(-c3[nH]nc4c3C(=O)c3c(NC(=O)NN5CCOCC5)cccc3-4)cc2)CC1 (as salt: TFA) [Example CCXVIII, 3-(4-(4-methylpiperazino)phenyl)-5-(morpholinocarbamoylamino)indeno[1,2-c]pyrazol-4-one]  245 °C
19. CO[C@H]1CC[C@H](C(=O)N2CCC(c3[nH]nc4c3C(=O)c3c(NC(=O)NN5CCOCC5)cccc3-4)CC2)CC1 (as salt: TFA) [Example CCXCII, 3-(1-(trans-4-methoxycyclohexylcarbonyl)piperidin-4-yl)-5-(morpholinocarbamoylamino)indeno[1,2-c]pyrazol-4-one]  246 °C
20. CC(C)N1CCN(c2ccc(-c3[nH]nc4c3C(=O)c3c(NC(=O)NN5CCOCC5)cccc3-4)cc2)CC1 (as salt: TFA) [Example CCXX, 3-(4-(4-isopropylpiperazino)phenyl)-5-(morpholinocarbamoylamino)indeno[1,2-c]pyrazol-4-one]  253 °C
21. CN1CCN(NC(=O)Nc2cccc3c2C(=O)c2c-3n[nH]c2-c2ccc(N3CCNCC3)cc2)CC1 (as salt: TFA) [Example CCXXIII, 3-(4-piperazinophenyl)-5-((4-methylpiperazino)carbamoylamino)indeno[1,2-c]pyrazol-4-one]  254 °C
22. NC(=O)Nc1cccc2c1C(=O)c1c-2n[nH]c1-c1ccc(N2CCNCC2)cc1 (as salt: TFA) [Example CCXII, 3-(4-piperazinophenyl)-5-(carbamoylamino)indeno[1,2-c]pyrazol-4-one]  257 °C
23. NNC(=O)Nc1cccc2c1C(=O)c1c-2n[nH]c1-c1ccc(N2CCNCC2)cc1 (as salt: TFA) [Example CCXIII, 3-(4-piperazinophenyl)-5-(aminocarbamoylamino)indeno[1,2-c]pyrazol-4-one]  257 °C
24. CN(C)C1CCN(c2ccc(-c3[nH]nc4c3C(=O)c3c(NC(=O)NN5CCOCC5)cccc3-4)cc2)CC1 (as salt: TFA) [Example CCXLVIII, 3-(4-(4-(N,N-dimethylamino)piperidino)phenyl)-5-(morpholinocarbamoylamino)indeno[1,2-c]pyrazol-4-one]  258 °C
25. O=C(CN1CCOCC1)Nc1cccc2c1C(=O)c1c-2n[nH]c1-c1ccc(N2CCNCC2)cc1 (as salt: TFA) [Example CCXV, 3-(4-piperazinophenyl)-5-(morpholinoacetamido)indeno[1,2-c]pyrazol-4-one]  259 °C
26. O=C(Nc1cccc2c1C(=O)c1c-2n[nH]c1-c1ccc(N2CCNCC2)cc1)NN1CCOCC1 (as salt: TFA) [Example CCXI, 3-(4-piperazinophenyl)-5-(morpholinocarbamoylamino)indeno[1,2-c]pyrazol-4-one]  263 °C
27. CC1CCCC(C)N1NC(=O)Nc1cccc2c1C(=O)c1c-2n[nH]c1-c1ccc(N2CCNCC2)cc1 (stereo not shown) (as salt: TFA) [Example CCXXVII, 3-(4-piperazinophenyl)-5-((2,6-dimethylpiperidino)carbamoylamino)indeno[1,2-c]pyrazol-4-one]  270 °C
28. CC(C)N1CCN(c2ccc(-c3[nH]nc4c3C(=O)c3c(NC(=O)NN5CCN(C)CC5)cccc3-4)cc2)CC1 (as salt: TFA) [Example CCXXVI, 3-(4-(4-isopropylpiperazino)phenyl)-5-((4-methylpiperazino)carbamoylamino)indeno[1,2-c]pyrazol-4-one]  272 °C
29. O=C(Nc1cccc2c1C(=O)c1c-2n[nH]c1-c1ccc(N2CCNCC2)cc1)NN1CCN(CCO)CC1 (as salt: TFA) [Example CCXXVIII, 3-(4-piperazinophenyl)-5-((4-(2-hydroxyethyl)piperazino)carbamoylamino)indeno[1,2-c]pyrazol-4-one]  279 °C
30. CN1CCN(NC(=O)Nc2cccc3c2C(=O)c2c-3n[nH]c2-c2ccc(N3CCN(C)CC3)cc2)CC1 (as salt: TFA) [Example CCXXIV, 3-(4-(4-methylpiperazino)phenyl)-5-((4-methylpiperazino)carbamoylamino)indeno[1,2-c]pyrazol-4-one]  293 °C

In the case of COC[C@H]1CCCN1NC(=O)Nc1cccc2c1C(=O)c1c-2n[nH]c1-c1ccc(C(=O)N2CCN(C(=O)OC(C)(C)C)CC2)s1 (as salt: TFA) [Example CCV, 3-(5-(4-(t-butoxycarbonyl)piperazinocarbonyl)-2-thienyl)-5-(2(R)-(methoxymethyl)pyrrolidinocarbamoylamino)indeno[1,2-c]pyrazol-4-one], the melting point is reported as greater than 300 °C.
